Laboratory results published in the supplement of paper PMC10307832.

Tests used:
Assay in all cases: relative viability (nuclei count vs DMSO), 5 days (fraction); higher = more cells survive
Motesanib + Linsitinib = compound: CC1(C)CNc2cc(NC(=O)c3cccnc3NCc3ccncc3)ccc21 [Motesanib] + C[C@]1(O)C[C@@H](c2nc(-c3ccc4ccc(-c5ccccc5)nc4c3)c3c(N)nccn32)C1 [Linsitinib] (partner 1 µM)
Procedure, shortened: (§1)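 Relative viability divides the nuclei count in treated wells by that in vehicle wells. Lung cancer cell lines were seeded in 1536-well plates, dosed by pin tool the next day, and fixed and stained after 5 days in one step with final 0.05% Triton X-100, 1% formaldehyde and 1 ug/ml Hoechst. Dosing was a single drug or a fixed anchor-drug dose plus five library-drug doses (not always all listed) in √10 steps, and values are medians of duplicate plates imaged at 4×.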

[1] = compound: C[C@@]1(C(=O)Nc2ccc(F)nc2)CCCN1c1nc(Nc2cc(C3CC3)n[nH]2)c2cccn2n1 + C[C@@H](Oc1cc(-c2cnn(C3CCNCC3)c2)cnc1N)c1c(Cl)ccc(F)c1Cl [Crizotinib] (partner 1 µM)
Procedure, shortened: as §1

[2] = compound: C[C@@]1(C(=O)Nc2ccc(F)nc2)CCCN1c1nc(Nc2cc(C3CC3)n[nH]2)c2cccn2n1 + Nc1nc2[nH]cc(CCc3ccc(C(=O)N[C@@H](CCC(=O)O)C(=O)O)cc3)c2c(=O)[nH]1 [Pemetrexed] (partner 0.2 µM)
Procedure, shortened: as §1

[3] = compound: C[C@@]1(C(=O)Nc2ccc(F)nc2)CCCN1c1nc(Nc2cc(C3CC3)n[nH]2)c2cccn2n1 + O=C(c1cc(Cc2n[nH]c(=O)c3ccccc23)ccc1F)N1CCN(C(=O)C2CC2)CC1 [Olaparib] (partner 8 µM)
Procedure, shortened: as §1

Cell Line | relative viability (Motesanib + Linsitinib; first compound 0.01 µM) | relative viability (Motesanib + Linsitinib; first compound 0.03162 µM) | relative viability (Motesanib + Linsitinib; first compound 0.1 µM) | relative viability (Motesanib + Linsitinib; first compound 0.3162 µM) | relative viability (Motesanib + Linsitinib; first compound 1 µM) | relative viability ([1]; first compound 0.04 µM) | relative viability ([1]; first compound 0.1265 µM) | relative viability ([1]; first compound 0.4 µM) | relative viability ([1]; first compound 1.265 µM) | relative viability ([2]; first compound 0.04 µM) | relative viability ([2]; first compound 0.1265 µM) | relative viability ([2]; first compound 0.4 µM) | relative viability ([2]; first compound 1.265 µM) | relative viability ([3]; first compound 0.04 µM) | relative viability ([3]; first compound 0.1265 µM) | relative viability ([3]; first compound 0.4 µM) | relative viability ([3]; first compound 1.265 µM)
COR-L 105 | 0.872 | 1.22 | 1.04 | 0.889 | 1.17 | 0.805 | 0.454 | 0.5 | 0.456 | 1.07 | 0.658 | 0.865 | 1.1 | 0.74 | 0.604 | 0.571 | 0.595
RERF-LC-KJ | 0.864 | 0.926 | 0.857 | 0.919 | 0.844 | 0.874 | 0.733 | 0.732 | 0.801 | 0.467 | 0.421 | 0.438 | 0.436 | 0.892 | 0.858 | 0.737 | 0.345
LXF-289 | 0.958 | 0.974 | 1.02 | 1 | 1.02 | 0.837 | 0.806 | 0.751 | 0.714 | 0.9 | 0.921 | 0.804 | 0.859 | 1.07 | 1.1 | 0.933 | 1.07
PC-14 | 1.01 | 0.97 | 1.02 | 0.997 | 0.97 | 0.901 | 0.806 | 0.758 | 0.763 | 0.154 | 0.155 | 0.134 | 0.121 | 0.368 | 0.335 | 0.319 | 0.222
NCI-H650 | 0.779 | 0.833 | 0.936 | 1.02 | 0.795 | 0.764 | 0.449 | 0.489 | 0.47 | 0.837 | 0.706 | 0.745 | 0.692 | 0.372 | 0.326 | 0.281 | 0.237
NCI-H1666 | 0.966 | 0.83 | 0.786 | 0.788 | 0.753 | 0.811 | 0.845 | 0.708 | 0.574 | 0.797 | 0.735 | 0.714 | 0.683 | 0.707 | 0.73 | 0.713 | 0.724
NCI-H2085 | 0.936 | 0.853 | 1.13 | 0.996 | 0.886 | 0.913 | 0.979 | 0.844 | 0.635 | 0.959 | 0.844 | 0.887 | 0.877 | 0.827 | 0.748 | 0.711 | 0.819
NCI-H1734 | 0.843 | 0.951 | 0.897 | 0.976 | 1.01 | 0.554 | 0.51 | 0.358 | 0.509 | 0.418 | 0.338 | 0.404 | 0.381 | 0.506 | 0.405 | 0.385 | 0.436
NCI-H2126 | 0.736 | 0.73 | 0.719 | 0.74 | 0.701 | 0.923 | 0.845 | 0.672 | 0.98 | 0.622 | 0.463 | 0.379 | 0.465 | 0.67 | 0.643 | 0.575 | 0.76
EMC-BAC-2 | 0.828 | 0.805 | 0.827 | 0.817 | 0.86 | 0.675 | 0.697 | 0.66 | 0.816 | 0.454 | 0.42 | 0.471 | 0.439 | 0.406 | 0.368 | 0.312 | 0.334
NCI-H1993 | 0.675 | 0.759 | 0.727 | 0.719 | 0.762 | 0.663 | – | 0.64 | 0.633 | 0.496 | 0.488 | 0.462 | 0.474 | 0.926 | 0.88 | 0.492 | 0.662
NCI-H520 | 0.86 | 1.02 | 0.911 | 1.18 | 0.923 | 0.802 | 0.499 | 0.618 | 0.636 | 0.661 | 0.529 | 0.581 | 0.615 | 0.334 | 0.33 | 0.298 | 0.291
NCI-H647 | 1.17 | 1.12 | 1.38 | 1.14 | 1.14 | 1.07 | 1.03 | 0.841 | 0.447 | 0.174 | 0.163 | 0.174 | 0.123 | 0.607 | 0.487 | 0.368 | 0.505
NCI-H1792 | 0.569 | 0.492 | 0.625 | 0.561 | 0.492 | 0.896 | 0.677 | 0.62 | 0.473 | 0.641 | 0.333 | 0.303 | 0.27 | 0.194 | 0.175 | 0.0767 | 0.161
SK-LU-1 | 1.14 | 1.01 | 1.2 | 1.1 | 1.32 | 0.824 | 0.875 | 0.715 | 0.467 | 1.07 | 0.833 | 0.778 | 0.85 | 0.414 | 0.361 | 0.396 | 0.403
NCI-H2009 | 1.14 | 1.27 | 1.17 | 1.22 | 1.18 | 1.06 | 1.01 | 0.966 | 0.541 | 1.07 | 1.01 | 1.01 | 1.03 | 0.718 | 0.657 | 0.726 | 0.663
LOU-NH91 | 1.05 | 0.996 | 0.942 | 0.91 | 0.996 | 0.736 | 0.812 | 0.667 | 0.725 | 0.394 | 0.409 | 0.353 | 0.346 | 0.932 | 0.945 | 0.828 | 0.908
NCI-H2405 | – | 1 | 0.866 | 0.967 | 0.993 | 0.862 | 0.759 | 0.649 | 0.889 | 0.8 | 0.905 | 0.819 | 0.614 | 0.808 | 0.611 | 0.598 | 0.511
